Reference: US11135224B2, “Methods of sensitizing estrogen receptor positive (ER+) breast cancer cells to endocrine therapy” (New York University, priority 2018, dated 2021)

Tested on: eIF4E phosphorylation (MNK1)
Experiment: Immunoblot of eIF4E phosphorylation, CGP57380 dose escalation in TamS and TamR cells
Type: cell-based, human
Conditions: escalating doses, 2 hours
Procedure: Endogenous eIF4E was silenced by shRNA. Cell proliferation was assayed by MTT assay with cells treated with DMSO vehicle or 1 μM 4-OHT. Results are from three independent experiments. […] Endogenous eIF4E was silenced by shRNA. Cell proliferation was assayed by MTT assay using conditions described above for FIG. 4. Results from three independent experiments are shown. FIG. 6C is an immunoblot of TamS and TamR cells treated with escalating doses of CGP57380 (GCP) for 2 hours and lysed in NP-40 buffer; equal protein amounts were probed for P-eIF4E, total eIF4E, and β-actin (loading control). […] Cells were treated with DMSO, 1 μM 4-OHT, or 4-OHT and MNK1 inhibitor CGP. […]
Immunoblot Studies: In brief, cells were lysed in NP-40 buffer (50 mM HEPES, pH 7.0, 150 mM NaCl, 2 mM EDTA, 25 mM NaF, 25 mM β-glycerophosphate, 2 mM Na3VO4, 1% IGEPAL, and Complete Mini protease inhibitor cocktail tablet+/−EDTA; Roche) or RIPA lysis buffer (1% Triton X-100, 1% sodium deoxycholate, 0.1% SDS, 150 mM NaCl, 50 mM Tris, pH 7.4, 2 mM Na3VO4, 25 mM β-glycerophosphate, 15 mM NaF, and complete protease inhibitor mix; Roche) and lysate cleared by centrifugation at 13,000 rpm for 10 minutes at 4° C. Lysate protein concentration was determined for each sample using BCA assay. […] Quantitation was performed by determination of the integrated density of the bands using ImageJ software. […]

For `Nc1ncnc2n[nH]c(Nc3ccc(F)cc3)c12` [CGP57380], the “concentration for complete inhibition of eIF4E phosphorylation” value was 10 µM.
